Test results as given in ChEMBL document CHEMBL4800729 (2021).

Columns and labels:
[1] = target: CDK7/Cyclin H/MNAT1 (Homo sapiens) (UniProt P51946+P50613+P51948); assay: CDK7/cyclinH/MAT1(h) Millipore kinase panel; assay type: protein-complex assay; conditions: Compound concentration 1.0 uM
[2] = target: Serine/threonine-protein kinase OSR1 (Homo sapiens) (UniProt O95747); assay: OSR1(h) Millipore kinase panel; conditions: Compound concentration 1.0 uM
[3] = target: CDK17/Cyclin-Y (Homo sapiens) (UniProt Q00537+Q8ND76); assay: CDK17/cyclinY(h) Millipore kinase panel; assay type: protein-complex assay; conditions: Compound concentration 1.0 uM
[4] = target: Serine/threonine-protein kinase TAO1 (Homo sapiens) (UniProt Q7L7X3); assay: TAO1(h) Millipore kinase panel; conditions: Compound concentration 1.0 uM
[5] = target: D(3) dopamine receptor (Homo sapiens) (UniProt P35462); conditions: Compound concentration 10.0 uM
[6] = target: Protein kinase C alpha type (Homo sapiens) (UniProt P17252); assay: PKCalpha(h) Millipore kinase panel; conditions: Compound concentration 1.0 uM
[7] = target: Misshapen-like kinase 1 (Homo sapiens) (UniProt Q8N4C8); assay: MINK(h) Millipore kinase panel; conditions: Compound concentration 1.0 uM
[8] = target: Cyclin-dependent kinase 13/Cyclin-K (Homo sapiens) (UniProt Q14004+O75909); assay: CDK13/cyclinK(h) Millipore kinase panel; assay type: protein-complex assay; conditions: Compound concentration 1.0 uM
[9] = target: Beta-3 adrenergic receptor (Homo sapiens) (UniProt P13945); conditions: Compound concentration 10.0 uM
[10] = target: Protein kinase C eta type (Homo sapiens) (UniProt P24723); assay: PKCeta(h) Millipore kinase panel; conditions: Compound concentration 1.0 uM
[11] = target: Serine/threonine-protein kinase MAK (Homo sapiens) (UniProt P20794); assay: MAK(h) Millipore kinase panel; conditions: Compound concentration 1.0 uM
[12] = target: Glutamate NMDA receptor (Rattus norvegicus) (UniProt P35439+Q00959+Q00960+Q00961+Q62645+Q8VHN2+Q9R1M7); conditions: Compound concentration 10.0 uM
[13] = target: Mitogen-activated protein kinase kinase kinase 21 (Homo sapiens) (UniProt Q5TCX8); assay: MLK4(h) Millipore kinase panel; conditions: Compound concentration 1.0 uM
[14] = target: 5'-AMP-activated protein kinase catalytic subunit alpha-2 (Homo sapiens) (UniProt P54646); assay: AMPKalpha2(h) Millipore kinase panel; conditions: Compound concentration 1.0 uM
D(1A) dopamine receptor = D(1A) dopamine receptor (Homo sapiens, UniProt P21728); conditions: Compound concentration 10.0 uM
[15] = target: Casein kinase I isoform gamma-2 (Homo sapiens) (UniProt P78368); assay: CK1gamma2(h) Millipore kinase panel; conditions: Compound concentration 1.0 uM
[16] = target: Beta-adrenergic receptor kinase 1 (Homo sapiens) (UniProt P25098); assay: GRK2(h) Millipore kinase panel; conditions: Compound concentration 1.0 uM
[17] = target: Serine/threonine-protein kinase LATS1 (Homo sapiens) (UniProt O95835); assay: LATS1(h) Millipore kinase panel; conditions: Compound concentration 1.0 uM
[18] = target: Mitogen-activated protein kinase 13 (Homo sapiens) (UniProt O15264); assay: SAPK4(h) Millipore kinase panel; conditions: Compound concentration 1.0 uM
[19] = target: Homeodomain-interacting protein kinase 3 (Homo sapiens) (UniProt Q9H422); assay: HIPK3(h) Millipore kinase panel; conditions: Compound concentration 1.0 uM
[20] = target: Tyrosine-protein kinase Srms (Homo sapiens) (UniProt Q9H3Y6); assay: SRMS(h) Millipore kinase panel; conditions: Compound concentration 1.0 uM
[21] = target: Carbonic anhydrase 2 (Homo sapiens) (UniProt P00918); assay: Inhibition of Carbonic Anhydrase II at compound concentration of 10.0 uM in the Eurofins-Panlabs enzyme assay (Eurofins_assay_112020); set-up: substrate with concentration; conditions: Compound concentration 10.0 uM
[22] = target: Growth hormone secretagogue receptor type 1 (Homo sapiens) (UniProt Q92847); conditions: Compound concentration 10.0 uM
[23] = target: Muscarinic acetylcholine receptor M2 (Homo sapiens) (UniProt P08172); conditions: Compound concentration 10.0 uM
[24] = target: Serine/threonine-protein kinase D2 (Homo sapiens) (UniProt Q9BZL6); assay: PKD2(h) Millipore kinase panel; conditions: Compound concentration 1.0 uM
[25] = target: Ephrin type-A receptor 3 (Homo sapiens) (UniProt P29320); assay: EphA3(h) Millipore kinase panel; conditions: Compound concentration 1.0 uM
[26] = target: Mitogen-activated protein kinase 11 (Homo sapiens) (UniProt Q15759); assay: SAPK2b(h) Millipore kinase panel; conditions: Compound concentration 1.0 uM
[27] = target: Protein kinase C gamma type (Homo sapiens) (UniProt P05129); assay: PKCgamma(h) Millipore kinase panel; conditions: Compound concentration 1.0 uM
[28] = target: Focal adhesion kinase 1 (Homo sapiens) (UniProt Q05397); assay: FAK(h Millipore kinase panel; conditions: Compound concentration 1.0 uM
[29] = target: Serine/threonine-protein kinase WNK3 (Homo sapiens) (UniProt Q9BYP7); assay: WNK3(h) Millipore kinase panel; conditions: Compound concentration 1.0 uM
[30] = target: NT-3 growth factor receptor (Homo sapiens) (UniProt Q16288); assay: TrkC(h) Millipore kinase panel; conditions: Compound concentration 1.0 uM
[31] = target: LIM domain kinase 2 (Homo sapiens) (UniProt P53671); assay: LIMK2(h) Millipore kinase panel; conditions: Compound concentration 1.0 uM
[32] = target: Activin receptor type-2A (Homo sapiens) (UniProt P27037); assay: ACTR2(h) Millipore kinase panel; conditions: Compound concentration 1.0 uM
[33] = target: Serine/threonine-protein kinase NLK (Homo sapiens) (UniProt Q9UBE8); assay: NLK(h) Millipore kinase panel; conditions: Compound concentration 1.0 uM
[34] = target: Glycogen synthase kinase-3 beta (Homo sapiens) (UniProt P49841); assay: GSK3beta(h) Millipore kinase panel; conditions: Compound concentration 1.0 uM
[35] = target: CDK6/cyclin D3 (Homo sapiens) (UniProt P30281+Q00534); assay: CDK6/cyclinD3(h) Millipore kinase panel; assay type: protein-complex assay; conditions: Compound concentration 1.0 uM
[36] = target: Platelet-derived growth factor receptor alpha (Homo sapiens) (UniProt P16234); assay: PDGFRalpha Millipore kinase panel; conditions: Compound concentration 1.0 uM
[37] = target: Mitogen-activated protein kinase 1 (Homo sapiens) (UniProt P28482); assay: MAPK1(h) Millipore kinase panel; conditions: Compound concentration 1.0 uM
[38] = target: Muscarinic acetylcholine receptor M5 (Homo sapiens) (UniProt P08912); conditions: Compound concentration 10.0 uM
[39] = target: Activin receptor type-1 (Homo sapiens) (UniProt Q04771); assay: ALK2(h) Millipore kinase panel; conditions: Compound concentration 1.0 uM
[40] = target: Ribosomal protein S6 kinase alpha-2 (Homo sapiens) (UniProt Q15349); assay: Rsk3(h) Millipore kinase panel; conditions: Compound concentration 1.0 uM
[41] = target: Estrogen receptor (Homo sapiens) (UniProt P03372); conditions: Compound concentration 10.0 uM
[42] = target: Tyrosine-protein kinase ITK/TSK (Homo sapiens) (UniProt Q08881); assay: Itk(h) Millipore kinase panel; conditions: Compound concentration 1.0 uM
[43] = target: Tyrosine-protein kinase JAK2 (Homo sapiens) (UniProt O60674); assay: JAK2(h) Millipore kinase panel; conditions: Compound concentration 1.0 uM
[44] = target: Testis-specific serine/threonine-protein kinase 1 (Homo sapiens) (UniProt Q9BXA7); assay: TSSK1(h) Millipore kinase panel; conditions: Compound concentration 1.0 uM
[45] = target: Activated CDC42 kinase 1 (Homo sapiens) (UniProt Q07912); assay: ACK1(h) Millipore kinase panel; conditions: Compound concentration 1.0 uM
[46] = target: Serine/threonine-protein kinase PRP4 homolog (Homo sapiens) (UniProt Q13523); assay: PRP4(h) Millipore kinase panel; conditions: Compound concentration 1.0 uM
[47] = target: SRSF protein kinase 2 (Homo sapiens) (UniProt P78362); assay: SRPK2(h) Millipore kinase panel; conditions: Compound concentration 1.0 uM
[48] = target: Phosphatidylinositol 4,5-bisphosphate 3-kinase catalytic subunit gamma isoform (Homo sapiens) (UniProt P48736); assay: PI3 Kinase (p120g)(h) Millipore kinase panel; conditions: Compound concentration 1.0 uM

Measured: inhibition

CC[C@@H](Nc1c(C#N)c(-c2ccc(-c3cccc(C)c3F)cc2)nc2cnccc12)C(=O)O [BAY-091]
inactive: [1] 0.3% | [2] -3.86% | [3] 0.09% | [4] 1.92% | [5] 27% | [6] 16.2% | [7] 3.07% | [8] 1.16% | [9] 16% | [10] 3.77% | [11] 9.23% | [12] -3% | [13] 9.6% | [14] -5.39% | D(1A) dopamine receptor 15% | [15] 12.4% | [16] 1.9% | [17] 8.31% | [18] -3.58% | [19] 4.32% | [20] 26.3% | [21] -6% | [22] 6% | [23] 8% | [24] 4.37% | [25] 4.71% | [26] -2.08% | [27] -0.39% | [28] 13.3% | [29] -1.89% | [30] 14.8% | [31] 3.03% | [32] 1.17% | [33] 8.59% | [34] -0.05% | [35] 8.28% | [36] 9.33% | [37] 6.43% | [38] -4.26% | [39] 5.14% | [40] 10.9% | [41] 10% | [42] 9.18% | [43] -5.62% | [44] 14.2% | [45] 10.5% | [46] 18.9% | [47] -8.51% | [48] 14.4%
